The values below come from publication PMC12372887, “Mechanism and cellular actions of the potent AMPK inhibitor BAY-3827” (Science Advances, 2025).

Test [1] relates to AMPKα1α2−/− DKO primary hepatocytes. Briefly: Lipogenesis assay ([14C]-acetate incorporation into fatty acids). The test is classed as cell-based, mouse. As to the method:
Mouse hepatocytes were isolated by collagenase perfusion as previously described ([47]). Hepatocytes were seeded in medium Eagle-199 (MEM-199) (#41150, Thermo Fisher Scientific) containing penicillin G (100 U/ml), streptomycin (100 μg/ml), and 10% (v/v) fetal bovine serum (FBS). Hepatocytes were left for attachment (3 to 4 hours) and serum-starved overnight at 37°C with 5% CO2 in MEM-199 supplemented with penicillin G (100 U/ml), streptomycin (100 μg/ml), 10 nM insulin, and 100 nM dexamethasone. […] Cells were then harvested in 0.5 ml of phosphate-buffered saline (PBS), transferred into 1 ml of 40% KOH and 2 ml of methanol followed by 1-hour incubation at 80°C. Lipids were […] by acidifying the samples in 37% HCl and extracted with petroleum ether. Extracts were allowed to evaporate to dryness and then dissolved in Ultima Gold scintillation fluid for determination of [^14C]-acetate incorporation into lipids.

For test [2], the system named is mouse primary adipocytes. In words: Immunoblot of signaling in primary adipocytes. Type of test: cell-based. The method, then: Epidydimal adipose tissue excised from mice was digested with collagenase (1 mg/ml) in Krebs-Ringer medium (120 mM NaCl, 4.7 mM KCl, 1.2 mM KH2PO4, and 1.2 mM MgSO4) containing 25 mM Hepes (pH 7.4), 200 nM adenosine, 2 mM glucose, and 3% (w/v) bovine serum albumin (BSA) (KRH buffer) at 37°C in a shaking incubator. Adipocytes were isolated by filtering and washing in KRH buffer. For preparation of protein extracts for Western blot, adipocyte suspensions [0.7 to 1 ml of 10% (v/v) cells] were preincubated with BAY-3827 or BAY-974 compounds or 0.1% DMSO for 1 hour at 37°C in a shaking (80 rpm) water bath followed by either 1 hour of incubation with 10 μM MK-8722 or 30 min with 0.1 nM insulin (Novo Nordisk) in KRH buffer, as indicated in the figure legends. […] Lysates were centrifuged at 13,000g for 15 min (4°C), and supernatant protein concentration was determined by the Bradford assay. […]
For adipocyte experiments, cell lysates (25 μg protein) were heated at 95°C for 3 min in LDS sample buffer, subjected to polyacrylamide gel electrophoresis on precast Novex gradient gels (Thermo Fisher Scientific) and electrotransferred to nitrocellulose membranes. […] Luminescence signals were visualized in a ChemiDoc XRS+ (Bio-Rad) and quantified by densitometry using the software Image LabTM 5.1 (Bio-Rad). […]
Background: Immunoblotting shows a protein as a band on a membrane.

Test [3] relates to mouse primary adipocytes. In words: Glucose uptake of primary adipocytes. As to conditions: varying doses. The test is classed as cell-based.
Test [4] relates to AMPK. Details: method as in PMID 33492659. As to conditions: 2 μM AMP, cited from earlier work.

Where two headings read alike, the source gives them in different places.

For the molecule `CCc1ccccc1C(=O)Nc1n[nH]c2c(C)c(F)c(C3C(C#N)=C(C)N(C)C(C)=C3C#N)cc12` [BAY-3827, N-[5-(3,5-dicyano-1,2,6-trimethyl-4H-pyridin-4-yl)-6-fluoro-7-methyl-1H-indazol-3-yl]-2-ethylbenzamide], the effect on lipogenesis entry in test [1] is on record as “no effect”. The “basal and insulin-stimulated phosphorylation of Akt and TBC1D4” value in test [2] (10 μM) was “not significantly affected”. Further, the Raptor phosphorylation entry in test [2] (varying doses, irrespective of MK-8722) is given as “dose-dependent reduction”. For the same molecule, the “basal and insulin-stimulated glucose uptake” value in test [3] is “not significantly affected”. Also, the IC50 is 15 nM in test [4] (high (2 mM) ATP) and 1.4 nM in test [4] (low (10 μM) ATP).

As usually defined, the IC50 is the concentration needed to halve the response being measured.
